Reference: PubChem BioAssay (NCI)
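Results reflect a 48-hour exposure of cells in 96-well plates to compound at five concentrations. TGI denotes the concentration required for complete inhibition of growth.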

Key:
Test in all cases: inhibition of tumour cell growth, NCI panel, 48 h
DMS 114 small cell lung = test system: DMS 114 small cell lung
DMS 273 small cell lung = test system: DMS 273 small cell lung
LXFL 529 NSCLC = test system: LXFL 529 NSCLC
M19-MEL melanoma = test system: M19-MEL melanoma
SNB-78 CNS = test system: SNB-78 CNS
XF 498 CNS = test system: XF 498 CNS
DLD-1 colon = test system: DLD-1 colon
HOP-18 NSCLC = test system: HOP-18 NSCLC
RXF-631 renal = test system: RXF-631 renal

Row | Compound | TGI (DMS 114 small cell lung) | TGI (DMS 273 small cell lung) | TGI (LXFL 529 NSCLC) | TGI (M19-MEL melanoma) | TGI (SNB-78 CNS) | TGI (XF 498 CNS) | TGI (DLD-1 colon) | TGI (HOP-18 NSCLC) | TGI (RXF-631 renal)
1 | CCN(CC)C(=O)CCn1ccc(=O)[nH]c1=O | > 100 µM | > 100 µM | > 100 µM | > 100 µM | > 100 µM | > 100 µM | – | – | –
2 | O=C1C(Cl)C(c2cccc([N+](=O)[O-])c2)N1n1cnc2ccccc2c1=O (stereo not given) | > 100 µM | > 100 µM | > 100 µM | > 100 µM | – | – | > 100 µM | > 100 µM | –
3 | C[C@@H]1C(=O)CC2C(C)(C)CCC[C@]2(C)[C@@]12CC[C@]1(C=COC1)O2 (stereo not given in full) | > 100 µM | > 100 µM | – | > 100 µM | > 100 µM | – | – | > 100 µM | –
4 | C/C(=N/NC(=O)c1ccccc1S(N)(=O)=O)C(CN1CCCCC1)C(C1=C(O)C2C=CC=CC2OC1=O)c1ccccc1 (stereo not given) | – | – | > 100 µM | > 100 µM | > 100 µM | > 100 µM | > 100 µM | > 100 µM | > 100 µM
5 | O=C(Cc1ccccc1)NN1C(=O)C(Cl)C1c1ccc(Cl)cc1 (stereo not given) | > 100 µM | > 100 µM | > 100 µM | – | > 100 µM | > 100 µM | > 100 µM | > 100 µM | –
6 | N/N=c1/nc2n(c3ncccc13)C=CNN2 | > 100 µM | > 100 µM | > 100 µM | – | – | > 100 µM | > 100 µM | – | > 100 µM
7 | O=C(O)CN1CCSc2ccccc2CN(CC(=O)O)CCSc2ccccc2C1 | – | > 100 µM | > 100 µM | > 100 µM | > 100 µM | – | > 100 µM | > 100 µM | –
8 | C=C=C[P+](c1ccccc1)(c1ccccc1)c1ccccc1 | 29.9 µM | 54.8 µM | 20.8 µM | 91.9 µM | 86 µM | – | > 100 µM | > 100 µM | –
